pEC50: −log10 of the molar value. Active and inactive are the calls of the source. The rule behind the calls is not given here.
Legend:
HT-29 = assay: Antitumor activity against human HT-29 cells; type: functional, cell-based
MDA-MB-231 = assay: Antitumor activity against human MDA-MB-231 cells; type: functional, cell-based
Plasmodium falciparum = assay: Antimalarial activity against Plasmodium falciparum FcB1; type: functional, organism-based; conditions: FcB1/Columbia
A549 = assay: Antitumor activity against human A549 cells; type: functional, cell-based
[1] = Toxicity against Dysidea avara
[2] = Toxicity against Ircinia variabilis

N=C(N)NCC/C=C1\NC(=O)N(/C=C/c2ccc(O)cc2)C1=O
Activity (HT-29): inactive
Activity (MDA-MB-231): inactive
Activity (Plasmodium falciparum): inactive
Activity (A549): inactive

COc1ccc(/C=C/N2C(=O)N/C(=C\CCNC(=N)N)C2=O)cc1Br
Activity (HT-29): inactive
Activity (MDA-MB-231): inactive
Activity (Plasmodium falciparum): inactive
Activity (A549): inactive

COc1ccc(/C=C/N2C(=O)N[C@@H](CCCNC(=N)N)C2=O)cc1Br
Activity (HT-29): inactive
Activity (MDA-MB-231): inactive
Activity (Plasmodium falciparum): inactive
Activity (A549): inactive

COc1ccc(/C=C/N2C(=O)N/C(=C\CCNC(=N)N)C2=O)cc1 [PARAZOANTHINE C]
Activity (HT-29): inactive
pEC50 [1]: 5.79
Activity (MDA-MB-231): inactive
Activity (Plasmodium falciparum): inactive
Activity (A549): inactive
pEC50 [2]: 5.79

N=C(N)NCCC[C@@H]1NC(=O)N(/C=C/c2ccc(O)cc2)C1=O
Activity (HT-29): inactive
Activity (MDA-MB-231): inactive
Activity (Plasmodium falciparum): inactive
Activity (A549): inactive

From ChEMBL document CHEMBL1154245, “Parazoanthines A-E, hydantoin alkaloids from the Mediterranean sea anemone Parazoanthus axinellae” (J Nat Prod, 2009)
